Assays:
[1] = tested on: senescent human IMR-90 fibroblast cells; format: cell-based; details: increasing concentrations (FIGS. 6A-C, 12A-C)
In short: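 Senescence was induced by etoposide at […] for 48 h, with the phenotype present 7 days later, or by H-RasG12 or long-term passaging. Cells grown at 5% oxygen were transfected with DNAzymes by Lipofectamine 2000, and survival was scored 3-6 days later by PrestoBlue relative to Lipofectamine-only control.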

[2] = tested on: p21 protein; experiment: Immunofluorescence of p21 protein in senescent cells; format: cell-based, human; details: 48 hour treatment, 1000 nM, compared to control scramble (FIG. 5G)
Method: 48 hours following transfection. IMR-90 cells were fixed by PFA 4% following the indicated treatments. Cells were blocked and incubated with antibodies against human p21 (CST) in blocking solution. Cells were then incubated with Dylight-549-conjugated secondary antibody (Jackson ImmunoResearch) and counterstained with DAPI (Sigma). Images were acquired using Nikon Eclipse Ti2 microscope at ×10 magnification.
Alternatively, cells were fixed with 4% Formaldehyde for 15 minutes, permeabilized in 0.2% […] for 5 minutes and blocked with 2% bovine serum albumin (BSA) for 30 min in room temperature. Cells were then incubated with a primary or with a conjugated antibody over-night or for 3 hours respectively. For unconjugated antibodies, a corresponding fluorescently-labelled secondary antibody was added for 1 hour, followed by Hoechst counterstaining. Cells were washed with PBS three times following each step. Images were acquired using Nikon Eclipse Ti2 microscope at ×10 magnification.
Antibodies were diluted in blocking solution as indicated below: 53BP1 antibody (Novus biologicals NB100-304, 1:800), Phospho-histone H2AX antibody (Cell signaling #2577, 1:800), p21 Waf1/Cip1 antibody (Cell signaling #8865, 1:500), p16 antibody (Santa Cruz sc-56330, 1:200), Alexa Fluor-488 goat anti mouse (Thermo Fisher A11029, 1:1000).

Substance: DNAzyme 1670: SEQ ID NO: 54: GGGAAAGGAggctagctacaacgaAAGGGGGAG (DNA GGGAAAGGAGGCTAGCTACAACGAAAGGGGGAG; DNA, backbone and methylation of C not given here)
- selectivity of killing, senescent versus growing IMR-90 cells [1]: wide range of selective doses
- p21 protein levels [2]: significantly reduced

Source: patent US11879140B2, “P21 mRNA targeting DNAzymes” (1E Therapeutics Ltd., priority 2020, dated 2024)
